What all share (assay type): cell-based
In test [1] the test system is SKBr3 (estrogen receptor negative, Her2 over-expressing breast cancer cells). Briefly: Anti-proliferation assay (MTS/PMS, 72 h), SKBr3.
Test [2] deals with MCF-7 (estrogen receptor positive breast cancer cells). The experiment in a line: Anti-proliferation assay (MTS/PMS, 72 h), MCF-7.
Test [3] relates to SKBr3 and MCF-7 cell lines. Briefly: Anti-proliferative activity against both breast cancer cell lines (results in words). Particulars: SKBr3 and MCF-7, Tables 1-5. How it is done: Cells were maintained in a 1:1 mixture of Advanced DMEM/F12 (Gibco) supplemented with non-essential amino acids, L-glutamine (2 mM), streptomycin (500 μg/mL), penicillin (100 units/mL), and 10% FBS. Cells were grown to confluence in a humidified atmosphere (37° C., 5% CO2), seeded (2000/well, 100 μL) in 96-well plates, and allowed to attach overnight. Compound at varying concentrations in DMSO (1% DMSO final concentration) was added, and cells were returned to the incubator for 72 h. At 72 h, the number of viable cells was determined using an MTS/PMS cell proliferation kit (Promega) per the manufacturer's instructions. Cells incubated in 1% DMSO were used at 100% proliferation, and values were adjusted accordingly. IC50 values were calculated from separate experiments performed in triplicate using GraphPad Prism.
The anti-proliferative activity of these compounds is evaluated against two breast cancer cell lines, SKBr3 (estrogen receptor negative, Her2 over-expressing breast cancer cells) and MCF-7 (estrogen receptor positive breast cancer cells).

[4] abbreviates: Homo sapiens, SK-BR-3, Table 1, modified benzamide coumarin derivatives, read-out: SKBr3.
[5] abbreviates: Homo sapiens, MCF7, Table 1, modified benzamide coumarin derivatives, read-out: MCF-7.
Where [6] appears, read: Homo sapiens, SK-BR-3, Table 2, modified benzamide and biphenylamide derivatives (in μM), read-out: SKBr3.
Setting [7] is: Homo sapiens, MCF7, Table 2, modified benzamide and biphenylamide derivatives (in μM), read-out: MCF-7.
[8] abbreviates: Table 4, alkylamino analogues, read-out: SKBr3.
The mark [9] stands for this setting: Table 4, alkylamino analogues, read-out: MCF-7.
Setting [10] is: Table 5, alkylether derivatives with cyclic N-substitutions, read-out: SKBr3.
[11] abbreviates: Table 5, alkylether derivatives with cyclic N-substitutions, read-out: MCF-7.

Where two headings read alike, the source gives them in different places.

The results in this text go back to patent US10030006B2, “Coumarin based Hsp90 inhibitors with urea and ether substituents” (University of Kansas, priority 2013, dated 2018).

Take `Cc1c(OC2CCN(C)CC2)ccc2cc(NC(=O)c3ccc(O)c(CCC(C)C)c3)c(=O)oc12` [Compound 19, 4-hydroxy-3-isopentyl-N-(8-methyl-7-(1-methylpiperidin-4-yloxy)-2-oxo-2H-chromen-3-yl)benzamide]: the IC50 in test [1] (setting [4]) turned out to be 0.6 ± 0.01 µM; in test [2] (setting [5]), 1.25 ± 0.39 µM. Further, the “anti-proliferative activity (in words)” value in test [3] was “no effect on inhibitory activity”.

On to `Cc1c(OC2CCN(C)CC2)ccc2cc(NC(=O)c3ccc4c(c3)CCC(C)(C)O4)c(=O)oc12` [Compound 20, 2,2-dimethyl-N-(8-methyl-7-(1-methylpiperidin-4-yloxy)-2-oxo-2H-chromen-3-yl)chroman-6-carboxamide], for which the IC50 in test [1] (setting [4]) came to 3.46 ± 0.02 µM; in test [2] (setting [5]), 5.01 ± 0.01 µM. In addition, the “anti-proliferative activity (in words)” value in test [3] is listed as “decreased anti-proliferative activities”.

For the molecule `C=CCc1cc(C(=O)Nc2cc3ccc(OC4CCN(C)CC4)c(C)c3oc2=O)ccc1OC(C)=O` [Compound 21a, 2-allyl-4-((8-methyl-7-((1-methylpiperidin-4-yl)oxy)-2-oxo-2H-chromen-3-yl)carbamoyl)phenyl acetate], the IC50 amounted to 2.26 ± 0.12 µM in test [1] (setting [4]) and 2 ± 0.18 µM in test [2] (setting [5]). Moreover, the “anti-proliferative activity (in words)” value in test [3] is reported as “decreased anti-proliferative activities”.

Regarding `CC(=O)Oc1ccc(C(=O)Nc2cc3ccc(OC4CCN(C)CC4)c(C)c3oc2=O)cc1` [Compound 21b, 4-(8-methyl-7-(1-methylpiperidin-4-yloxy)-2-oxo-2H-chromen-3-ylcarbamoyl)phenyl acetate], the IC50 in test [1] (setting [4]) was 1.67 ± 0.2 µM; in test [2] (setting [5]) it was 1.62 ± 0.04 µM. The “anti-proliferative activity (in words)” value in test [3] is recorded as “decreased anti-proliferative activities”.

Take `CC(C)=CCc1cccc(C(=O)Nc2cc3ccc(OC4CCN(C)CC4)c(C)c3oc2=O)c1` [Compound 21c, N-(8-methyl-7-((1-methylpiperidin-4-yl)oxy)-2-oxo-2H-chromen-3-yl)-3-(3-methylbut-2-en-1-yl)benzamide]: the IC50 in test [1] (setting [4]) came to 1.68 ± 0.12 µM; in test [2] (setting [5]), 2.1 ± 0.08 µM. The “anti-proliferative activity (in words)” value in test [3] was “two-fold lower activity”.

Consider `Cc1c(OC2CCN(C)CC2)ccc2cc(NC(=O)c3ccccc3)c(=O)oc12` [Compound 21d, N-(8-methyl-7-(1-methylpiperidin-4-yloxy)-2-oxo-2H-chromen-3-yl)benzamide], for which the IC50 in test [1] (setting [4]) was determined as 11.5 ± 2 µM; in test [1] (Homo sapiens, SK-BR-3, amide versus urea linkage, read-out: IC50 for SKBr3), 11.5 µM; in test [2] (setting [5]), 11.7 ± 1 µM; in test [2] (Homo sapiens, MCF7, amide versus urea linkage, read-out: IC50 for MCF-3), 11.7 µM. The “anti-proliferative activity (in words)” value in test [3] was “significantly decreased activity”.

As for `CC(=O)Oc1ccc(C(=O)Nc2cc3ccc(OC4CCN(C)CC4)c(C)c3oc2=O)cc1Cl` [Compound 21e, 2-chloro-4-(8-methyl-7-(1-methylpiperidin-4-yloxy)-2-oxo-2H-chromen-3-ylcarbamoyl)phenyl acetate], the IC50 in test [1] (setting [4]) was 3.5 ± 0.01 µM; in test [2] (setting [5]), 1.61 ± 0.16 µM. Also, the “anti-proliferative activity (in words)” value in test [3] is “diminished activity”.

In the case of `C=CCc1cc(C(=O)Nc2cc3ccc(OC4CCN(C)CC4)c(C)c3oc2=O)ccc1O` [Compound 22a, 3-allyl-4-hydroxy-N-(8-methyl-7-((1-methylpiperidin-4-yl)oxy)-2-oxo-2H-chromen-3-yl)benzamide], the IC50 is 2.43 ± 0.04 µM in test [1] (setting [4]) and 2.17 ± 0.11 µM in test [2] (setting [5]). Further, the “anti-proliferative activity (in words)” value in test [3] is listed as “decreased anti-proliferative activities”.

In the case of `Cc1c(OC2CCN(C)CC2)ccc2cc(NC(=O)c3ccc(O)cc3)c(=O)oc12` [Compound 22b, 4-hydroxy-N-(8-methyl-7-(1-methylpiperidin-4-yloxy)-2-oxo-2H-chromen-3-yl)benzamide], the results for the IC50 in test [1] (setting [4]) and in test [2] (setting [5]) were 0.84 ± 0.18 µM and 1.43 ± 0.08 µM, respectively. Further, the “anti-proliferative activity (in words)” value in test [3] is listed as “decreased anti-proliferative activities”.

Turning to `Cc1c(OC2CCN(C)CC2)ccc2cc(NC(=O)c3ccc(O)c(Cl)c3)c(=O)oc12` [Compound 22e, 3-chloro-4-hydroxy-N-(8-methyl-7-(1-methylpiperidin-4-yloxy)-2-oxo-2H-chromen-3-yl)benzamide], the IC50 in test [1] (setting [4]) came to 2.3 ± 0.57 µM; in test [2] (setting [5]) it was 1.48 ± 0.14 µM. For the same molecule, the “anti-proliferative activity (in words)” value in test [3] is “diminished activity”.

Consider `COc1cccc(-c2cc(C(=O)Nc3cc4ccc(OC5CCN(C)CC5)c(C)c4oc3=O)ccc2OC(C)=O)c1` [Compound 32a, 3′-methoxy-5-(8-methyl-7-(1-methylpiperidin-4-yloxy)-2-oxo-2H-chromen-3-ylcarbamoyl)biphenyl-2-yl acetate], for which the IC50 in test [1] (setting [6]) is 0.92 ± 0.06 µM; in test [2] (setting [7]), 0.91 µM. Moreover, the “anti-proliferative activity (in words)” value in test [3] was “maintains inhibitory activity”.

As to `COc1ccc(C(=O)Nc2cc3ccc(OC4CCN(C)CC4)c(C)c3oc2=O)cc1-c1cccc(OC(C)=O)c1` [Compound 32b, 2′-methoxy-5′-(8-methyl-7-(1-methylpiperidin-4-yloxy)-2-oxo-2H-chromen-3-ylcarbamoyl)biphenyl-3-yl acetate], the IC50 in test [1] (setting [6]) was 0.29 ± 0.01 µM; in test [2] (setting [7]) it was 0.36 ± 0.06 µM. For the same molecule, the “anti-proliferative activity (in words)” value in test [3] is on record as “increases activity almost three-fold”.

Take `COc1cccc(-c2cc(C(=O)Nc3cc4ccc(OC5CCN(C)CC5)c(C)c4oc3=O)ccc2O)c1` [Compound 33a, 6-hydroxy-3′-methoxy-N-(8-methyl-7-(1-methylpiperidin-4-yloxy)-2-oxo-2H-chromen-3-yl)biphenyl-3-carboxamide]: the IC50 in test [1] (setting [6]) is 0.86 ± 0.16 µM; in test [2] (setting [7]), 0.81 ± 0.14 µM. Also, in test [3], the “anti-proliferative activity (in words)” value is reported as “maintains inhibitory activity”.

As to `COc1ccc(C(=O)Nc2cc3ccc(OC4CCN(C)CC4)c(C)c3oc2=O)cc1-c1cccc(O)c1` [Compound 33b, 3′-hydroxy-6-methoxy-N-(8-methyl-7-(1-methylpiperidin-4-yloxy)-2-oxo-2H-chromen-3-yl)biphenyl-3-carboxamide], the IC50 in test [1] (setting [6]) was 0.31 ± 0.04 µM; in test [2] (setting [7]), 0.38 ± 0.08 µM. The “anti-proliferative activity (in words)” value in test [3] is recorded as “increases activity almost three-fold”.

Turning to `CC(C)=CCc1cc(C(=O)Nc2cc3ccc(OCCCN4CCCC4)c(C)c3oc2=O)ccc1O` [Compound 66, 4-hydroxy-N-(8-methyl-2-oxo-7-(3-(pyrrolidin-1-yl)propoxy)-2H-chromen-3-yl)-3-(3-methylbut-2-en-1-yl)benzamide], the “anti-proliferative activity (in words)” value in test [3] is recorded as “restores activity”.

As for `CCCN(CCC)CCCOc1ccc2cc(NC(=O)c3ccc(O)c(CC=C(C)C)c3)c(=O)oc2c1C` [Compound 68e, N-(7-(3-(dipropylamino)propoxy)-8-methyl-2-oxo-2H-chromen-3-yl)-4-hydroxy-3-(3-methylbut-2-en-1-yl)benzamide], the IC50 in test [1] (Homo sapiens, SK-BR-3, Table 4, alkylamino analogues, read-out: SKBr3) was more than 50 µM; in test [2] (Homo sapiens, MCF7, Table 4, alkylamino analogues, read-out: MCF-7) it was more than 50 µM. Moreover, in test [3], the “anti-proliferative activity (in words)” value is given as “did not show any activity at the highest concentration”.

In the case of `COC(=O)CNCCCOc1ccc2cc(NC(=O)c3ccc(O)c(CC=C(C)C)c3)c(=O)oc2c1C` [Compound 68l], the IC50 stood at 1.06 ± 0.11 µM in test [1] (setting [8]) and 2.82 ± 0.27 µM in test [2] (setting [9]). Moreover, the “anti-proliferative activity (in words)” value in test [3] was “decreased anti-proliferative activity”.

As for `CC(C)=CCc1cc(C(=O)Nc2cc3ccc(OCCCNCC(=O)O)c(C)c3oc2=O)ccc1O` [Compound 68m], the IC50 in test [1] (setting [8]) is 7.57 ± 2.86 µM; in test [2] (setting [9]) it was 18.1 ± 5.35 µM. In test [3], the “anti-proliferative activity (in words)” value is “decreased anti-proliferative activity”.

In the case of `CC(C)=CCc1cc(C(=O)Nc2cc3ccc(OCCCNCC(N)=O)c(C)c3oc2=O)ccc1O` [Compound 68n], the figures for the IC50 in test [1] (setting [8]) and in test [2] (setting [9]) were 2.29 ± 0.47 µM and 1.46 ± 0.35 µM, respectively. The “anti-proliferative activity (in words)” value in test [3] is on record as “decreased anti-proliferative activity”.

Consider `CC(C)=CCc1cc(C(=O)Nc2cc3ccc(OCCCNCCO)c(C)c3oc2=O)ccc1O` [Compound 68o], for which the IC50 amounted to 0.61 ± 0.06 µM in test [1] (setting [8]) and 1.56 ± 0.09 µM in test [2] (setting [9]). Also, the “anti-proliferative activity (in words)” value in test [3] is reported as “retains activity”.

As for `CC(C)=CCc1cc(C(=O)Nc2cc3ccc(OCCCNc4ccccc4)c(C)c3oc2=O)ccc1O` [Compound 70c], the IC50 in test [1] (setting [10]) and in test [2] (setting [11]) was more than 50 µM each time. The “anti-proliferative activity (in words)” value in test [3] was “inactive”.

For `CC(C)=CCc1cc(C(=O)Nc2cc3ccc(OCCCN(C)c4ccccc4)c(C)c3oc2=O)ccc1O` [Compound 70d], the IC50 in test [1] (setting [10]) and in test [2] (setting [11]) was more than 50 µM in each case. Moreover, the “anti-proliferative activity (in words)” value in test [3] was “inactive”.

Consider `CC(C)=CCc1cc(C(=O)Nc2cc3ccc(OCCCN(C)Cc4ccccc4)c(C)c3oc2=O)ccc1O` [Compound 70h, N-(7-(3-(benzyl(methyl)amino)propoxy)-8-methyl-2-oxo-2H-chromen-3-yl)-4-hydroxy-3-(3-methylbut-2-en-1-yl)benzamide], for which the IC50 in test [1] (Homo sapiens, SK-BR-3, Table 5, alkylether derivatives with cyclic N-substitutions, read-out: SKBr3) was 10.7 ± 0.49 µM; in test [2] (Homo sapiens, MCF7, Table 5, alkylether derivatives with cyclic N-substitutions, read-out: MCF-7) it was 11.5 ± 4.16 µM. Besides, in test [3], the “anti-proliferative activity (in words)” value was “greatly decreased activity”.
